Experimental data from PubChem BioAssay AID256 (DTP/NCI, 2004).
Toxic doses and inconclusive results are not listed.

Test system: CD2F1 mice, L1210 leukemia ip, survival T/C
Experiment: NCI In Vivo Anticancer Drug Screen. Data for tumor model L1210 Leukemia (intraperitoneal) in CD2F1 (CDF1) mice
Settings: higher = longer survival
How it was run: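 In this screen, transplantable tumors were grown in mice given either the compound or its vehicle. Results were expressed as the treated measurement relative to the control measurement.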

[1] = endpoint: mean survival time, dose: 200.0 mg/kg/injection, schedule: Q01DX009 (ip), vehicle: saline with Tween-80

## CCOC(=O)C(C)Sc1n[nH]c(=O)[nH]c1=O (configuration not stated)
endpoint: mean survival time, dose: 12.5 mg/kg/injection, schedule: Q01DX005 (ip), vehicle: distilled water + Tween-80
  T/C: 96 % of control
endpoint: mean survival time, dose: 25.0 mg/kg/injection, schedule: Q01DX005 (ip), vehicle: distilled water + Tween-80
  T/C: 96 % of control
endpoint: mean survival time, dose: 50.0 mg/kg/injection, schedule: Q01DX005 (ip), vehicle: distilled water + Tween-80
  T/C: 96 % of control
endpoint: mean survival time, dose: 100.0 mg/kg/injection, schedule: Q01DX005 (ip), vehicle: distilled water + Tween-80
  T/C: 92 % of control
endpoint: mean survival time, dose: 200.0 mg/kg/injection, schedule: Q01DX005 (ip), vehicle: distilled water + Tween-80
  T/C: 94 % of control

## CN(C)OC(=O)Nc1ccc([N+](=O)[O-])cc1
endpoint: mean survival time, dose: 100.0 mg/kg/injection, schedule: Q04DX002 (ip), vehicle: saline with Tween-80
  T/C: 97 % of control
endpoint: mean survival time, dose: 200.0 mg/kg/injection, schedule: Q04DX002 (ip), vehicle: saline with Tween-80
  T/C: 112 % of control
endpoint: mean survival time, dose: 400.0 mg/kg/injection, schedule: Q04DX002 (ip), vehicle: saline with Tween-80
  T/C: 108 % of control

## c1ccc(CNc2ncnc3[nH]ncc23)cc1
endpoint: mean survival time, dose: 1.12 mg/kg/injection, schedule: Q01DX Z (ip), vehicle: carboxymethylcellulose (CMC)
  T/C: 100 % of control
endpoint: mean survival time, dose: 2.25 mg/kg/injection, schedule: Q01DX Z (ip), vehicle: carboxymethylcellulose (CMC)
  T/C: 103 % of control
endpoint: mean survival time, dose: 4.5 mg/kg/injection, schedule: Q01DX Z (ip), vehicle: carboxymethylcellulose (CMC)
  T/C: 100 % of control
endpoint: mean survival time, dose: 9.0 mg/kg/injection, schedule: Q01DX Z (ip), vehicle: carboxymethylcellulose (CMC)
  T/C: 102 % of control

## O=S(=O)(c1ccccc1)c1ccc(Br)cc1
endpoint: mean survival time, dose: 100.0 mg/kg/injection, schedule: Q01DX009 (ip), vehicle: saline with Tween-80
  T/C: 94 % of control
[1]
  T/C: 96 % of control
endpoint: mean survival time, dose: 400.0 mg/kg/injection, schedule: Q01DX009 (ip), vehicle: saline with Tween-80
  T/C: 98 % of control

## Cc1cccc(C(=O)OCCBr)c1
endpoint: mean survival time, dose: 75.0 mg/kg/injection, schedule: Q01DX009 (ip), vehicle: saline with Tween-80
  T/C: 102 % of control

## CCS(=O)(=O)C(C)S(=O)(=O)CC
endpoint: mean survival time, dose: 100.0 mg/kg/injection, schedule: Q01DX001 (ip), vehicle: saline with Tween-80
  T/C: 100 % of control
endpoint: mean survival time, dose: 200.0 mg/kg/injection, schedule: Q01DX001 (ip), vehicle: saline with Tween-80
  T/C: 107 % of control
endpoint: mean survival time, dose: 400.0 mg/kg/injection, schedule: Q01DX001 (ip), vehicle: saline with Tween-80
  T/C: 104 % of control

## CC(=O)OC1OC(CS[As](C)C)C(OC(C)=O)C(OC(C)=O)C1OC(C)=O (configuration not stated)
endpoint: mean survival time, dose: 50.0 mg/kg/injection, schedule: Q01DX009 (ip), vehicle: other
  T/C: 96 % of control
endpoint: mean survival time, dose: 100.0 mg/kg/injection, schedule: Q01DX009 (ip), vehicle: other
  T/C: 108 % of control
endpoint: mean survival time, dose: 200.0 mg/kg/injection, schedule: Q01DX009 (ip), vehicle: other
  T/C: 93 % of control

## O=S(=O)(/C=C/S(=O)(=O)c1ccccc1)c1ccccc1
endpoint: mean survival time, dose: 62.5 mg/kg/injection, schedule: Q01DX009 (ip), vehicle: Klucel (hydroxypropylcellulose) (HPC)
  T/C: 97 % of control
endpoint: mean survival time, dose: 125.0 mg/kg/injection, schedule: Q01DX009 (ip), vehicle: Klucel (hydroxypropylcellulose) (HPC)
  T/C: 98 % of control

## C=C1C(=O)OCC2(CC)CCCCC12 (configuration not stated)
endpoint: mean survival time, dose: 5.0 mg/kg/injection, schedule: Q01DX009 (ip), vehicle: water
  T/C: 94 % of control
endpoint: mean survival time, dose: 10.0 mg/kg/injection, schedule: Q01DX009 (ip), vehicle: water
  T/C: 88 % of control
endpoint: mean survival time, dose: 20.0 mg/kg/injection, schedule: Q01DX009 (ip), vehicle: water
  T/C: 96 % of control

## Cc1cn([C@@H]2C[C@H](CO)[C@@H](O)C2)c(=O)[nH]c1=O
endpoint: mean survival time, dose: 133.0 mg/kg/injection, schedule: Q01DX009 (ip), vehicle: saline
  T/C: 118 % of control
endpoint: mean survival time, dose: 200.0 mg/kg/injection, schedule: Q01DX009 (ip), vehicle: saline
  T/C: 121 % of control
endpoint: mean survival time, dose: 450.0 mg/kg/injection, schedule: Q01DX009 (ip), vehicle: saline
  T/C: 106 % of control

## CC(O)CN1CCN(CC(C)O)CC1.[Cl][Pt+2][Cl] (configuration not stated)
endpoint: mean survival time, dose: 3.13 mg/kg/injection, schedule: Q04DX003 (ip), vehicle: saline with Tween-80
  T/C: 105 % of control
endpoint: mean survival time, dose: 6.25 mg/kg/injection, schedule: Q04DX003 (ip), vehicle: saline with Tween-80
  T/C: 102 % of control
endpoint: mean survival time, dose: 12.5 mg/kg/injection, schedule: Q04DX003 (ip), vehicle: saline with Tween-80
  T/C: 105 % of control
endpoint: mean survival time, dose: 25.0 mg/kg/injection, schedule: Q04DX003 (ip), vehicle: saline with Tween-80
  T/C: 102 % of control
endpoint: mean survival time, dose: 50.0 mg/kg/injection, schedule: Q04DX003 (ip), vehicle: saline with Tween-80
  T/C: 97 % of control

## C[C@@]1(CO)[C@H](O)CC[C@@]2(C)[C@H]1CC[C@H]1C[C@@H]3C[C@@]12CC[C@@]3(O)COC(=O)CN
endpoint: median survival time, dose: 0.2 mg/kg/injection, schedule: Q01DX009 (ip), vehicle: saline + alcohol
  T/C: 100 % of control
endpoint: median survival time, dose: 0.4 mg/kg/injection, schedule: Q01DX009 (ip), vehicle: saline + alcohol
  T/C: 106 % of control
endpoint: median survival time, dose: 0.8 mg/kg/injection, schedule: Q01DX009 (ip), vehicle: saline + alcohol
  T/C: 107 % of control
endpoint: median survival time, dose: 1.6 mg/kg/injection, schedule: Q01DX009 (ip), vehicle: saline + alcohol
  T/C: 102 % of control
endpoint: median survival time, dose: 5.0 mg/kg/injection, schedule: Q03HX027 (ip), vehicle: saline + alcohol
  T/C: 101 % of control
endpoint: median survival time, dose: 6.25 mg/kg/injection, schedule: Q01DX009 (ip), vehicle: saline + alcohol
  T/C: 105 % of control
endpoint: median survival time, dose: 10.0 mg/kg/injection, schedule: Q03HX027 (ip), vehicle: saline + alcohol
  T/C: 109 % of control
endpoint: median survival time, dose: 12.5 mg/kg/injection, schedule: Q01DX009 (ip), vehicle: saline + alcohol
  T/C: 106 % of control
endpoint: median survival time, dose: 20.0 mg/kg/injection, schedule: Q03HX027 (ip), vehicle: saline + alcohol
  T/C: 116 % of control
endpoint: median survival time, dose: 25.0 mg/kg/injection, schedule: Q01DX005 (ip), vehicle: saline
  T/C: 112 % of control
endpoint: median survival time, dose: 25.0 mg/kg/injection, schedule: Q01DX009 (ip), vehicle: saline + alcohol
  T/C: 107 % of control
endpoint: median survival time, dose: 36.0 mg/kg/injection, schedule: Q01DX005 (ip), vehicle: saline
  T/C: 115 % of control
endpoint: median survival time, dose: 36.0 mg/kg/injection, schedule: Q01DX009 (ip), vehicle: saline
  T/C: 110 % of control
endpoint: median survival time, dose: 50.0 mg/kg/injection, schedule: Q01DX005 (ip), vehicle: saline
  T/C: 116 % of control
endpoint: median survival time, dose: 50.0 mg/kg/injection, schedule: Q01DX009 (ip), vehicle: saline + alcohol
  T/C: 116 % of control
endpoint: median survival time, dose: 60.0 mg/kg/injection, schedule: Q01DX005 (ip), vehicle: saline
  T/C: 116 % of control
endpoint: median survival time, dose: 60.0 mg/kg/injection, schedule: Q01DX009 (ip), vehicle: saline
  T/C: 110 % of control
endpoint: median survival time, dose: 100.0 mg/kg/injection, schedule: Q01DX005 (ip), vehicle: saline
  T/C: 122 % of control
endpoint: median survival time, dose: 100.0 mg/kg/injection, schedule: Q01DX009 (ip), vehicle: saline
  T/C: 151 % of control
endpoint: median survival time, dose: 166.6 mg/kg/injection, schedule: Q01DX009 (ip), vehicle: saline
  T/C: 153 % of control
endpoint: median survival time, dose: 12.5 micrograms/kg/injection, schedule: Q01DX009 (ip), vehicle: saline + alcohol
  T/C: 103 % of control
endpoint: median survival time, dose: 25.0 micrograms/kg/injection, schedule: Q01DX009 (ip), vehicle: saline + alcohol
  T/C: 103 % of control
endpoint: median survival time, dose: 50.0 micrograms/kg/injection, schedule: Q01DX009 (ip), vehicle: saline + alcohol
  T/C: 103 % of control
endpoint: median survival time, dose: 100.0 micrograms/kg/injection, schedule: Q01DX009 (ip), vehicle: saline + alcohol
  T/C: 101 % of control
endpoint: median survival time, dose: 200.0 micrograms/kg/injection, schedule: Q01DX009 (ip), vehicle: saline + alcohol
  T/C: 102 % of control

## COC1OC(COC(=O)c2ccccc2)C2OC(=O)OC12 (configuration not stated)
endpoint: mean survival time, dose: 100.0 mg/kg/injection, schedule: Q04DX003 (ip), vehicle: saline with Tween-80
  T/C: 93 % of control
endpoint: mean survival time, dose: 200.0 mg/kg/injection, schedule: Q04DX003 (ip), vehicle: saline with Tween-80
  T/C: 90 % of control
endpoint: mean survival time, dose: 400.0 mg/kg/injection, schedule: Q04DX003 (ip), vehicle: saline with Tween-80
  T/C: 102 % of control

## O=C(CNC(=O)NCc1ccco1)N/N=C/c1cc(Br)ccc1O
endpoint: mean survival time, dose: 12.5 mg/kg/injection, schedule: Q01DX009 (ip), vehicle: saline with Tween-80
  T/C: 94 % of control
endpoint: mean survival time, dose: 25.0 mg/kg/injection, schedule: Q01DX009 (ip), vehicle: saline with Tween-80
  T/C: 94 % of control
endpoint: mean survival time, dose: 50.0 mg/kg/injection, schedule: Q01DX009 (ip), vehicle: saline with Tween-80
  T/C: 96 % of control
[1]
  T/C: 100 % of control
